6 molecules from patent publication US20060100215A1, “8A,9-dihydro-4aH-isothiazolo[5,4-b]quinoline-3,4-diones and related compounds as anti-infective agents” (priority 2004, published 2006) can be followed below.

Converted amounts (≈) assume the structure as drawn.

One assay concerns S. aureus ATCC 29213. The experiment in a line: Minimum inhibitory concentration (MIC) assay, broth microdilution. In kind it is cell-based. The note with it: Staphylococcus aureus, ATCC29213, Mueller-Hinton II broth, 37° C., 18 to 24 hours, lowest concentration that inhibited visible growth. Here is the method:
(§1) The antimicrobial activity of the compounds of the invention may be evaluated by a number of methods, including the following visual minimum inhibitory concentration (MIC) assay. This assay determines the minimum concentration of compound required to inhibit growth of a bacterial strain. Minimum Inhibitory Concentration (MIC) Assay Whole-cell antibacterial activity is determined by broth microdilution using conditions recommended by the NCCLS (see National Committee for Clinical Laboratory Standards. 2001. Performance standards for antimicrobial susceptibility testing: 11th informational supplement. Vol. 21, no. 1, M100-S11. National Committee for Clinical Laboratory Standards, Wayne, Pa.). Test compounds are dissolved in DMSO and diluted 1:50 in Mueller-Hinton II broth (Becton-Dickinson) to produce a 256 μg/ml stock solution. In a 96-well microtiter plate, the compound solution is serially two-fold diluted in Mueller-Hinton II broth. After the compounds are diluted, a 50 μl aliquot of the test organism (˜1×10^6 cfu/mL) is added to each well of the microtiter plate. The final test concentrations ranges from 0.125-128 μg/mL. Inoculated plates are incubated in ambient air at 37° C. for 18 to 24 hours. The organisms selected for testing included laboratory strains S. aureus ATCC 29213 and E. coli ATCC 25922 (strains purchased from American Type Culture Collection, Manassas, Va.). The minimum inhibitory concentration (MIC) is determined as the lowest concentration of compound that inhibited visible growth of the test organism.
(In general: In broth dilution the organism is exposed to a series of concentrations in liquid medium.)

In another assay the test system is E. coli ATCC 25922. The description is as above. The assay is classed as cell-based. The note with it: Escherichia coli, ATCC25922, Mueller-Hinton II broth, 37° C., 18 to 24 hours, lowest concentration that inhibited visible growth. Here is the method: as §1

The MIC is the least concentration at which growth counts as inhibited.

Turning to `CON=C1CCN(c2cc3c(cc2F)c(=O)c2c(=O)[nH]sc2n3C2CC2)CC1` [Compound 32, 9-Cyclopropyl-6-fluoro-7-(4-methoxyimino-piperidin-1-yl)-9H-isothiazolo[5,4-b]quinoline-3,4-dione], the MIC against S. aureus ATCC 29213 and in the assay with E. coli ATCC 25922 was under 0.05 µg/mL throughout.

For `CO/N=C1\CN(c2nc3c(cc2F)c(=O)c2c(=O)[nH]sc2n3C2CC2)CC1CN` (stereo not drawn) [Compound 42, 7-(3-Aminomethyl-4-methoxyimino-pyrrolidin-1-yl)-9-cyclopropyl-6-fluro-9H-1-thia-2,8,9-triaza-cyclopenta[b]naphtalene-3,4-dione], the MIC in the assay with S. aureus ATCC 29213 was under 0.1 µg/mL; in the assay with E. coli ATCC 25922 it was under 0.125 µg/mL.

Take `CO/N=C1\CN(c2c(F)cc3c(=O)c4c(=O)[nH]sc4n(C4CC4)c3c2OC)CC1CN` (stereo not drawn) [Compound 39, 7-(3-Aminomethyl-4-methoxyimino-pyrrolidin-1-yl)-9-cyclopropyl-6-fluoro-8-methoxy-9H-isothiazolo[5,4-b]quinoline-3,4-dione]: the MIC was under 0.05 µg/mL against S. aureus ATCC 29213 and 0.125 µg/mL (≈ 0.279 µM) in the assay on E. coli ATCC 25922.

As to `CO/N=C1\CN(c2cc3c(cc2F)c(=O)c2c(=O)[nH]sc2n3C2CC2)CC1CN` (stereo not drawn) [Compound 13], the MIC with S. aureus ATCC 29213 was 0.05 µg/mL (≈ 0.12 µM); in the assay with E. coli ATCC 25922, under 0.05 µg/mL.

Consider `CO/N=C1\CN(c2cc3c(cc2F)c(=O)c2c(=O)[nH]sc2n3C2CC2)CC1(C)CN` (stereo not drawn) [Compound 27], for which the MIC with S. aureus ATCC 29213 and in the assay with E. coli ATCC 25922 was under 0.05 µg/mL in each case.

For the molecule `CO/N=C1\CN(c2cc3c(cc2F)c(=O)c2c(=O)[nH]sc2n3C2CC2)CC1CO` (stereo not drawn) [Compound 41, 9-Cyclopropyl-6-fluoro-7-(3-hydroxymethyl-4-methoxyimino-pyrrolidin-1-yl)-9H-isothiazolo[5,4-b]quinoline-3,4-dione], the values for the MIC in the assay with S. aureus ATCC 29213 and in the assay on E. coli ATCC 25922 were under 0.05 µg/mL and under 0.1 µg/mL, respectively.
